Counter-ions that a name gives are not always drawn. Like-named read-outs stand apart in the source and are kept apart here. A value given as a limit tells only on which side of the number the result lay.

Common to all, as to format: cell-based, human
Test [1] deals with NPCs. Put plainly: Secondary screen, lowest effective dose on NPCs. Particulars: lowest concentration that elicited cytotoxicity, range 0.1 to 50 μM, read-out: ED NPC (lowest effective dose). Here is the method:
In addition, the complete LOPAC1280™ collection was also screened for effects on neural progenitor cells (NPCs) that were derived from the hESCs. Neural progenitors were plated in serum-free MedII conditioned medium at 6×10^4 cells/well and fed daily. Two days after plating, 10 μM of each compound was added and the cells were cultured for an additional 2 days. […] Reduced crystal violet staining was indicative of lower proportions of NPCs. See circled wells in FIG. 7B. The left and right columns of the LOPAC1280™ plates from which the compounds were dispensed were empty and served as untreated controls. […] See Table 6 below listing the name and class of activity of each candidate compound identified in this screen (except chelerythrine chloride, which is listed in Table 5). ChCl was not included in the subsequent round of screening. Therefore only 40 compounds were tested further.
(§1) Using a range of different concentrations from 0.1 to 50 μM, the forty compounds in Table 6 were re-screened (secondary screen) using hESCS and NPCs. The effective dose (ED) was defined as the lowest concentration of a compound that elicited cytotoxicity during the secondary screen. […] The darker wells were indicative of the increased numbers or percentages of proliferating or growing pluripotent stem cells in the wells. In addition, these 40 compounds were screened on differentiating definitive endoderm (DE) cell cultures in 96-well plate impedance assays (described above) to determine which of these compounds were not cytotoxic to definitive endoderm cells at the lowest effective dose on either hESC or NPC. […] See “ACEA DE” column in Table 6.

Test [2] concerns hESCs. Briefly: Secondary screen, lowest effective dose on hESCs. Particulars: lowest concentration that elicited cytotoxicity, range 0.1 to 50 μM, read-out: ED hESC (lowest effective dose). Here is the method:
To expand the number of potential candidate hESC cytotoxic and inhibitory compounds, the complete LOPAC1280™ collection (containing 1,280 compounds) was screened. In the primary screen, cytotoxicity was tested on undifferentiated hESCs (about 3×10^4 BG01 cells) in 16 standard 96-well trays, in DC-HAIF defined medium on growth factor-reduced MATRIGEL™ diluted 1:200, which were fed daily (FIG. 7A). 10 μM of each compound was added to the hESCs one day after plating, and the cells were cultured for an additional 2 days. Plates were then fixed and stained for alkaline phosphatase (AP) to identify relative decreases in proliferation or growth of hESCs (as reduced AP staining), indicative of lower proportions of hESCs. See the circled wells in FIG. 7A.
as §1

The subject of test [3] is differentiating definitive endoderm (DE) cell cultures. Briefly: 96-well plate impedance assay (ACEA) on differentiating definitive endoderm at lowest effective dose. Further details: key: Viable: Compounds that did not appear to be cytotoxic toward differentiating DE cultures were marked as “viable”, meaning that the compound did not affect the survival, growth, proliferation or differentiation of the differentiated cells. Particulars: at the lowest effective dose on either hESC or NPC.
Excerpt: The impedance assay on the hESCs using the compounds in Table 4 above gave greater than twenty (20) hits. However, the ideal candidate compound of the present invention should not only be inhibitory or cytotoxic to human pluripotent stem cells, such as hESCs or hIPSCs, but should at the same time have no effect on cell viability of differentiated or differentiating cell populations including Stage 1, 2, 3, 4 and 5 type cells cultures (definitive endoderm, foregut endoderm, posterior foregut, pancreatic endoderm and endocrine cells, respectively). […] Approximately 3×10^4 hES cells were plated per well and grown for 24 hrs in DC-HAIF defined medium (i.e. StemPro® hESC SFM medium (Life Technologies, Carlsbad, Calif.). Stage 1 or definitive endoderm differentiation was then induced by changing the medium and culturing in RPMI, 100 ng/mL Activin A, and 10 ng/mL of FGF2. […] of GSK-3 beta Inhibitor 15 (Calbiochem #361558) as added to the culture for the first 24 hours of differentiation only. 10 μM of each of the candidate compounds were added about 48 hours or 2 days after differentiation was induced (see FIGS. 3 C & D, large arrowhead), and the cells were cultured for an additional 2 days.
as §1

For the compound `Oc1cc(-c2ccccc2)nc2nc(Cl)ccc12` [7-Chloro-4-hydroxy-2-phenyl-1,8-naphthyridine], the minimal effective concentration in test [1] (Homo sapiens, 48 h) came to 5 µM; in test [2] (Homo sapiens) it was 5 µM. Moreover, in test [3], the “ACEA DE” value is “Viable”.

`c1ccc2c(c1)[I+]c1ccccc1-2` [Diphenyleneiodonium chloride]: the minimal effective concentration is less than 0.1 µM in test [1] (Homo sapiens, 48 h) and 0.1 µM in test [2] (Homo sapiens).

Consider `COC(=O)C1=C(C)NC(C)=C(C(=O)OC(C)(C)CN(C)CCC(c2ccccc2)c2ccccc2)C1c1cccc([N+](=O)[O-])c1` (stereo not drawn) [Lercanidipine hydrochloride], for which the minimal effective concentration in test [1] (Homo sapiens, 48 h) worked out at 10 µM; in test [2] (Homo sapiens) it was 10 µM.

`CC[N+](CC)(CC)CCOc1ccc(/C=C/c2ccccc2)cc1` [MG 624]: the minimal effective concentration was 5 µM in test [1] (Homo sapiens, 48 h) and 0.1 µM in test [2] (Homo sapiens). Moreover, the “ACEA DE” value in test [3] is given as “Viable”.

As to `COc1cc([C@@H]2c3cc4c(cc3[C@H](O)[C@H]3COC(=O)[C@H]23)OCO4)cc(OC)c1OC` [Podophyllotoxin], the minimal effective concentration in test [2] (Homo sapiens) is less than 0.1 µM. Further, the “ACEA DE” value in test [3] is reported as “Viable”.

As for `CCCCCCCC/C=C\CCCCCCCC(=O)NCCc1ccc(O)c(O)c1` [N-Oleoyldopamine], the minimal effective concentration in test [1] (Homo sapiens, 48 h) was determined as 1 µM; in test [2] (Homo sapiens), 5 µM. Moreover, in test [3], the “ACEA DE” value is “Viable”.

Turning to `CCN(CC)CCCC(C)Nc1c2ccc(Cl)cc2nc2ccc(OC)cc12` (stereo not drawn) [Quinacrine dihydrochloride], the minimal effective concentration in test [1] (Homo sapiens, 48 h) was found to be 25 µM; in test [2] (Homo sapiens) it was 10 µM. For the same compound, the “ACEA DE” value in test [3] is listed as “Viable”.

As for `CC1(C)CCC2=C(O1)c1ccccc1C(=O)C2=O` [beta-Lapachone], the minimal effective concentration was 5 µM in test [1] (Homo sapiens, 48 h) and 5 µM in test [2] (Homo sapiens).

`CC(C)(C)c1ccc(C(O)CCCN2CCC(C(O)(c3ccccc3)c3ccccc3)CC2)cc1` (stereo not drawn) [Terfenadine]: the minimal effective concentration in test [1] (Homo sapiens, 48 h) was 10 µM; in test [2] (Homo sapiens) it was 25 µM.

`C=CC1=C(C)c2cc3[nH]c(cc4nc(cc5[nH]c(cc1n2)c(C)c5CCC(=O)O)C(CCC(=O)O)=C4C)c(C)c3C=C` [Protoporphyrin IX disodium]: the minimal effective concentration is more than 50 µM in test [1] (Homo sapiens, 48 h) and 10 µM in test [2] (Homo sapiens). Also, the “ACEA DE” value in test [3] is recorded as “Viable”.

In the case of `COc1cc(NS(C)(=O)=O)ccc1Nc1c2ccccc2nc2ccccc12` [Amsacrine hydrochloride], the minimal effective concentration in test [1] (Homo sapiens, 48 h) was 0.1 µM; in test [2] (Homo sapiens), 1 µM.

With `COCC(=O)O[C@]1(CCN(C)CCCc2nc3ccccc3[nH]2)CCc2cc(F)ccc2[C@@H]1C(C)C` [Mibefradil dihydrochloride], the minimal effective concentration in test [1] (Homo sapiens, 48 h) is 25 µM; in test [2] (Homo sapiens), 25 µM.

On to `Ic1ccccc1CNC1C2CCN(CC2)C1C(c1ccccc1)c1ccccc1.O=C(O)C(=O)O` [L-703,606 oxalate], for which the minimal effective concentration in test [1] was more than 50 µM; in test [2], 25 µM.

Consider `C[C@H]1CCC/C=C/[C@@H]2C[C@H](O)C[C@H]2[C@H](O)/C=C/C(=O)O1` [Brefeldin A from Penicillium], for which the minimal effective concentration in test [1] and in test [2] was less than 0.1 µM throughout.

On to `CC[n+]1c(/C=C/C=C2/N(C)c3ccccc3C2(C)C)sc2ccccc21.[I-]` [AC-93253 iodide], for which the minimal effective concentration is reported as less than 0.1 µM in test [1] and 5 µM in test [2].

Regarding `COc1cc2c(cc1O)CC[C@@H]1[C@@H]2CC[C@]2(C)[C@@H](O)CC[C@@H]12` [2-methoxyestradiol], the minimal effective concentration came out at 1 µM in test [1] and 10 µM in test [2].

Take `CC1=C(/C=C/C(C)=C/C=C/C(C)=C/C(=O)Nc2ccc(O)cc2)C(C)(C)CCC1` [Retinoic acid p-hydroxyanilide]: the minimal effective concentration in test [1] is on record as 5 µM; in test [2], 1 µM. Also, the “ACEA DE” value in test [3] is recorded as “Viable”.

For the compound `Clc1ccc(C(c2ccc(Cl)cc2)n2cc[n+](CC(OCc3ccc(Cl)cc3Cl)c3ccc(Cl)cc3Cl)c2)cc1` (stereo not drawn) [Calmidazolium chloride], the minimal effective concentration in test [1] (Homo sapiens, 48 h) is 5 µM; in test [2] (Homo sapiens) it was 5 µM. Also, in test [3], the “ACEA DE” value is reported as “Viable”.

Consider `CC[C@H]1CN2CCc3cc(OC)c(OC)cc3[C@@H]2C[C@@H]1C[C@H]1NCCc2cc(OC)c(OC)cc21` [Emetine dihydrochloride hydrate], for which the minimal effective concentration in test [1] (Homo sapiens, 48 h) was 0.1 µM; in test [2] (Homo sapiens) it was less than 0.1 µM.

For the compound `Nc1ccc(CCN2CCN(c3cccc(C(F)(F)F)c3)CC2)cc1` [PAPP], the minimal effective concentration in test [1] is recorded as more than 50 µM; in test [2] it was 25 µM.

As to `COc1ccc2c(c1)CC[C@@H]1[C@@H]2CC[C@]2(C)[C@@H](NCCCCCCN3C(=O)CCC3=O)CC[C@@H]12` [U-73343], the minimal effective concentration in test [1] is on record as 5 µM; in test [2], 10 µM. For the same compound, the “ACEA DE” value in test [3] is reported as “Viable”.

Regarding `N` [Ammonium], the minimal effective concentration was more than 50 µM in test [1] and 10 µM in test [2]. In addition, the “ACEA DE” value in test [3] is reported as “Viable”.

Take `CNC(=O)[C@H]1O[C@@H](n2cnc3c(NCc4cccc(I)c4)ncnc32)[C@H](O)[C@@H]1O` [IB-MECA]: the minimal effective concentration in test [1] was more than 50 µM; in test [2], 50 µM.

Regarding `O=C(/C=C/c1ccc(O)c(O)c1)OCCc1ccccc1` [Caffeic acid phenethyl ester], the minimal effective concentration was 5 µM in test [1] (Homo sapiens, 48 h) and less than 0.1 µM in test [2] (Homo sapiens). The “ACEA DE” value in test [3] is “Viable”.

As to Vinblastine sulfate salt, the minimal effective concentration in test [1] and in test [2] was less than 0.1 µM throughout.

`CC(C)[C@H]1c2ccc(F)cc2CC[C@@]1(CCN(C)CCCc1nc2ccccc2[nH]1)OC(=O)C1CC1` [NNC 55-0396]: the minimal effective concentration in test [1] is listed as 5 µM; in test [2], 25 µM.

For `Cc1nc(-c2ccc(-c3ccc(C(=O)N4CCc5cc6c(cc54)C4(CCN(C)CC4)CO6)cc3)c(C)c2)no1` [SB 224289 hydrochloride], the minimal effective concentration in test [1] (Homo sapiens, 48 h) is 50 µM; in test [2] (Homo sapiens), 25 µM.

On to `Cc1cc(N)c2ccccc2[n+]1CCCCCCCCCC[n+]1c(C)cc(N)c2ccccc21` [Dequalinium chloride hydrate], for which the minimal effective concentration in test [1] (Homo sapiens, 48 h) amounted to 5 µM; in test [2] (Homo sapiens) it was 5 µM.

Consider `C[C@@H]1O[C@@H](O[C@H]2C[C@@H](O)[C@]3(CO)[C@H]4[C@H](O)C[C@]5(C)[C@@H](C6=CC(=O)OC6)CC[C@]5(O)[C@@H]4CC[C@]3(O)C2)[C@H](O)[C@H](O)[C@H]1O` [Ouabain], for which the minimal effective concentration is less than 0.1 µM in test [1] (Homo sapiens, 48 h) and less than 0.1 µM in test [2] (Homo sapiens).

With `C[C@@H]1O[C@@H](O[C@H]2C[C@@H](O)[C@]3(CO)[C@H]4[C@H](O)C[C@]5(C)[C@@H]([C@@H]6COC(=O)C6)CC[C@]5(O)[C@@H]4CC[C@]3(O)C2)[C@H](O)[C@H](O)[C@H]1O` [Dihydroouabain], the minimal effective concentration in test [1] is less than 0.1 µM; in test [2] it was 1 µM.

Turning to `CNc1ccc2oc(C[C@H]3O[C@@]4(CC[C@H]3C)O[C@H]([C@H](C)C(=O)c3ccc[nH]3)[C@H](C)C[C@H]4C)nc2c1C(=O)O` [Calcimycin], the minimal effective concentration in test [1] (Homo sapiens, 48 h) is less than 0.1 µM; in test [2] (Homo sapiens), 1 µM.

For the origin of these results see patent US9365830B2, “Agents and methods for inhibiting human pluripotent stem cell growth” (VIACYTE, INC., priority 2010, dated 2016).
